In US11877574B2, “Herbicidal oil dispersion and method” (Arysta LifeScience Inc., priority 2018, dated 2024):
Blank lines part the entries; values can stand above or below the compound they belong to.

Key:
[1] = Active ingredient assay and recovery on storage (Table 2); format: physicochemical
[2] = Active ingredient assay on storage, SCB239-12 (Table 3); format: physicochemical

SMILES: CCCCCCC(C)OC(=O)COc1nc(F)c(Cl)c(N)c1Cl (stereo not drawn) [Fluroxypyr, Fluroxypyr Meptyl]
Assay (% w/w) ([1]; 1 month storage, 0° C.): 11.47 % w/w
Assay (% w/w) ([1]; 1 month storage, 40° C.): 11.50 % w/w
Assay (% w/w) ([1]; 1 month storage, T/C): 11.52 % w/w
Assay (% w/w) ([1]; 1 month storage, −10° C.): 11.49 % w/w
Assay (% w/w) ([1]; 2 month storage, 0° C.): 11.56 % w/w
Assay (% w/w) ([1]; 2 month storage, 40° C.): 11.56 % w/w
Assay (% w/w) ([1]; 2 month storage, T/C): 11.55 % w/w
Assay (% w/w) ([1]; 2 month storage, −10° C.): 11.55 % w/w
Assay (% w/w) ([1]; 2 wks, 54° C.): 11.63 % w/w
Assay (% w/w) ([1]; 3 month storage, 0° C.): 11.63 % w/w
Assay (% w/w) ([1]; 3 month storage, 25° C.): 11.68 % w/w
Assay (% w/w) ([1]; 3 month storage, 40° C.): 11.69 % w/w
Assay (% w/w) ([1]; 3 month storage, T/C): 11.71 % w/w
Assay (% w/w) ([1]; 3 month storage, −10° C.): 11.71 % w/w
Assay (% w/w) ([1]; 6 month storage, 25° C.): 11.36 % w/w
Assay (% w/w) ([1]; 9 month storage, 25° C.): 11.56 % w/w
Assay (% w/w) ([1]; 12 month storage, 25° C.): 11.63 % w/w
Assay (% w/w) ([1]; F/T Sample): 11.61 % w/w
Assay (% w/w) ([1]; initial): 11.60 % w/w
Assay (% w/w) ([2]; 1 month storage, 0° C.): 11.25 % w/w
Recovery of active ingredient (% of initial assay) ([2]; 1 month storage, 0° C.): 99.37 % w/w
Assay (% w/w) ([2]; 1 month storage, 40° C.): 11.24 % w/w
Recovery of active ingredient (% of initial assay) ([2]; 1 month storage, 40° C.): 99.33 % w/w
Assay (% w/w) ([2]; 1 month storage, T/C): 11.25 % w/w
Recovery of active ingredient (% of initial assay) ([2]; 1 month storage, T/C): 99.36 % w/w
Assay (% w/w) ([2]; 2 month storage, 0° C.): 11.19 % w/w
Recovery of active ingredient (% of initial assay) ([2]; 2 month storage, 0° C.): 98.83 % w/w
Assay (% w/w) ([2]; 2 month storage, 40° C.): 11.13 % w/w
Recovery of active ingredient (% of initial assay) ([2]; 2 month storage, 40° C.): 98.36 % w/w
Assay (% w/w) ([2]; 2 month storage, T/C): 11.17 % w/w
Recovery of active ingredient (% of initial assay) ([2]; 2 month storage, T/C): 98.68 % w/w
Assay (% w/w) ([2]; 2 wks, 54° C.): 11.26 % w/w
Recovery of active ingredient (% of initial assay) ([2]; 2 wks, 54° C.): 99.48 % w/w
Assay (% w/w) ([2]; 3 month storage, 0° C.): 11.23 % w/w
Recovery of active ingredient (% of initial assay) ([2]; 3 month storage, 0° C.): 99.21 % w/w
Assay (% w/w) ([2]; 3 month storage, 25° C.): 11.20 % w/w
Recovery of active ingredient (% of initial assay) ([2]; 3 month storage, 25° C.): 98.92 % w/w
Assay (% w/w) ([2]; 3 month storage, 40° C.): 11.21 % w/w
Recovery of active ingredient (% of initial assay) ([2]; 3 month storage, 40° C.): 99.04 % w/w
Assay (% w/w) ([2]; 3 month storage, −10° C.): 11.13 % w/w
Recovery of active ingredient (% of initial assay) ([2]; 3 month storage, −10° C.): 98.30 % w/w
Assay (% w/w) ([2]; F/T sample): 11.28 % w/w
Recovery of active ingredient (% of initial assay) ([2]; F/T sample): 99.68 % w/w
Assay (% w/w) ([2]; Initial): 11.32 % w/w

SMILES: CCCCC(CC)COC(=O)COc1ccc(Cl)cc1C (stereo not drawn) [MCPA, 2-ethylhexyl 2-(4-chloro-2-methylphenoxy) acetate]
Assay (% w/w) ([1]; 1 month storage, 0° C.): 34.61 % w/w
Assay (% w/w) ([1]; 1 month storage, 40° C.): 34.69 % w/w
Assay (% w/w) ([1]; 1 month storage, T/C): 34.68 % w/w
Assay (% w/w) ([1]; 1 month storage, −10° C.): 34.65 % w/w
Assay (% w/w) ([1]; 2 month storage, 0° C.): 34.82 % w/w
Assay (% w/w) ([1]; 2 month storage, 40° C.): 34.90 % w/w
Assay (% w/w) ([1]; 2 month storage, T/C): 34.94 % w/w
Assay (% w/w) ([1]; 2 month storage, −10° C.): 34.92 % w/w
Assay (% w/w) ([1]; 2 wks, 54° C.): 35.05 % w/w
Assay (% w/w) ([1]; 3 month storage, 0° C.): 35.25 % w/w
Assay (% w/w) ([1]; 3 month storage, 25° C.): 35.23 % w/w
Assay (% w/w) ([1]; 3 month storage, 40° C.): 35.28 % w/w
Assay (% w/w) ([1]; 3 month storage, T/C): 35.30 % w/w
Assay (% w/w) ([1]; 3 month storage, −10° C.): 35.36 % w/w
Assay (% w/w) ([1]; 6 month storage, 25° C.): 34.14 % w/w
Assay (% w/w) ([1]; 9 month storage, 25° C.): 34.73 % w/w
Assay (% w/w) ([1]; 12 month storage, 25° C.): 34.84 % w/w
Assay (% w/w) ([1]; F/T Sample): 35.06 % w/w
Assay (% w/w) ([1]; initial): 35.01 % w/w
Assay (% w/w) ([2]; 1 month storage, 0° C.): 33.65 % w/w
Recovery of active ingredient (% of initial assay) ([2]; 1 month storage, 0° C.): 99.88 % w/w
Assay (% w/w) ([2]; 1 month storage, 40° C.): 33.61 % w/w
Recovery of active ingredient (% of initial assay) ([2]; 1 month storage, 40° C.): 99.77 % w/w
Assay (% w/w) ([2]; 1 month storage, T/C): 33.64 % w/w
Recovery of active ingredient (% of initial assay) ([2]; 1 month storage, T/C): 99.85 % w/w
Assay (% w/w) ([2]; 2 month storage, 0° C.): 34.07 % w/w
Recovery of active ingredient (% of initial assay) ([2]; 2 month storage, 0° C.): 101.15 % w/w
Assay (% w/w) ([2]; 2 month storage, 40° C.): 33.84 % w/w
Recovery of active ingredient (% of initial assay) ([2]; 2 month storage, 40° C.): 100.47 % w/w
Assay (% w/w) ([2]; 2 month storage, T/C): 33.97 % w/w
Recovery of active ingredient (% of initial assay) ([2]; 2 month storage, T/C): 100.84 % w/w
Assay (% w/w) ([2]; 2 wks, 54° C.): 34.24 % w/w
Recovery of active ingredient (% of initial assay) ([2]; 2 wks, 54° C.): 101.65 % w/w
Assay (% w/w) ([2]; 3 month storage, 0° C.): 33.76 % w/w
Recovery of active ingredient (% of initial assay) ([2]; 3 month storage, 0° C.): 100.21 % w/w
Assay (% w/w) ([2]; 3 month storage, 25° C.): 33.64 % w/w
Recovery of active ingredient (% of initial assay) ([2]; 3 month storage, 25° C.): 99.86 % w/w
Assay (% w/w) ([2]; 3 month storage, 40° C.): 33.61 % w/w
Recovery of active ingredient (% of initial assay) ([2]; 3 month storage, 40° C.): 99.76 % w/w
Assay (% w/w) ([2]; 3 month storage, −10° C.): 33.41 % w/w
Recovery of active ingredient (% of initial assay) ([2]; 3 month storage, −10° C.): 99.20 % w/w
Assay (% w/w) ([2]; F/T sample): 34.30 % w/w
Recovery of active ingredient (% of initial assay) ([2]; F/T sample): 101.84 % w/w
Assay (% w/w) ([2]; Initial): 33.69 % w/w

Assay (% w/w) ([1]; 1 month storage, 0° C.): 0.41 % w/w
Assay (% w/w) ([1]; 1 month storage, 40° C.): 0.41 % w/w
Assay (% w/w) ([1]; 1 month storage, T/C): 0.41 % w/w
Assay (% w/w) ([1]; 1 month storage, −10° C.): 0.41 % w/w
Assay (% w/w) ([1]; 2 month storage, 0° C.): 0.41 % w/w
Assay (% w/w) ([1]; 2 month storage, 40° C.): 0.40 % w/w
Assay (% w/w) ([1]; 2 month storage, T/C): 0.40 % w/w
Assay (% w/w) ([1]; 2 month storage, −10° C.): 0.41 % w/w
Assay (% w/w) ([1]; 2 wks, 54° C.): 0.39 % w/w
Assay (% w/w) ([1]; 3 month storage, 0° C.): 0.41 % w/w
Assay (% w/w) ([1]; 3 month storage, 25° C.): 0.41 % w/w
Assay (% w/w) ([1]; 3 month storage, 40° C.): 0.40 % w/w
Assay (% w/w) ([1]; 3 month storage, T/C): 0.41 % w/w
Assay (% w/w) ([1]; 3 month storage, −10° C.): 0.42 % w/w
Assay (% w/w) ([1]; 6 month storage, 25° C.): 0.39 % w/w
Assay (% w/w) ([1]; 9 month storage, 25° C.): 0.39 % w/w
Assay (% w/w) ([1]; 12 month storage, 25° C.): 0.39 % w/w
Assay (% w/w) ([1]; F/T Sample): 0.41 % w/w
Assay (% w/w) ([1]; initial): 0.41 % w/w
Assay (% w/w) ([2]; 1 month storage, 0° C.): 0.35 % w/w
Recovery of active ingredient (% of initial assay) ([2]; 1 month storage, 0° C.): 100.15 % w/w
Assay (% w/w) ([2]; 1 month storage, 40° C.): 0.35 % w/w
Recovery of active ingredient (% of initial assay) ([2]; 1 month storage, 40° C.): 99.58 % w/w
Assay (% w/w) ([2]; 1 month storage, T/C): 0.35 % w/w
Recovery of active ingredient (% of initial assay) ([2]; 1 month storage, T/C): 99.83 % w/w
Assay (% w/w) ([2]; 2 month storage, 0° C.): 0.36 % w/w
Recovery of active ingredient (% of initial assay) ([2]; 2 month storage, 0° C.): 100.12 % w/w
Assay (% w/w) ([2]; 2 month storage, 40° C.): 0.35 % w/w
Recovery of active ingredient (% of initial assay) ([2]; 2 month storage, 40° C.): 100.02 % w/w
Assay (% w/w) ([2]; 2 month storage, T/C): 0.36 % w/w
Recovery of active ingredient (% of initial assay) ([2]; 2 month storage, T/C): 101.08 % w/w
Assay (% w/w) ([2]; 2 wks, 54° C.): 0.35 % w/w
Recovery of active ingredient (% of initial assay) ([2]; 2 wks, 54° C.): 100.70 % w/w
Assay (% w/w) ([2]; 3 month storage, 0° C.): 0.35 % w/w
Recovery of active ingredient (% of initial assay) ([2]; 3 month storage, 0° C.): 100.75 % w/w
Assay (% w/w) ([2]; 3 month storage, 25° C.): 0.35 % w/w
Recovery of active ingredient (% of initial assay) ([2]; 3 month storage, 25° C.): 100.17 % w/w
Assay (% w/w) ([2]; 3 month storage, 40° C.): 0.35 % w/w
Recovery of active ingredient (% of initial assay) ([2]; 3 month storage, 40° C.): 99.39 % w/w
Assay (% w/w) ([2]; 3 month storage, −10° C.): 0.35 % w/w
Recovery of active ingredient (% of initial assay) ([2]; 3 month storage, −10° C.): 99.59 % w/w
Assay (% w/w) ([2]; F/T sample): 0.36 % w/w
Recovery of active ingredient (% of initial assay) ([2]; F/T sample): 101.49 % w/w
Assay (% w/w) ([2]; Initial): 0.35 % w/w
SMILES: CCCCCC(C)OC(=O)COc1ccc(Cl)c2cccnc12 (stereo not drawn) [cloquintocet, Cloquintocet Mexyl]
